The target in assay [1] is T1, human recombinant CBL-b (human Biotin CBL-b recombinant protein a.a. 39-426) (Homo sapiens, UniProt Q13191).
T1 construct: human Biotin CBL-b recombinant protein a.a; 39-426; Biotin (biotinylated); made in house
The assay can be described thus: Biochemical assay for CBL-b inhibition (ligand displacement TR-FRET). In kind it is binding. Particulars: 50 nM CBL-b, 0.3 μM Bodipy FL-Probe, read-out: IC50 (CBL-b inhibition, group). In a few lines:
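Ligand-displacement TR-FRET: 0.3 μM Bodipy FL probe competes with compound for 50 nM biotin-CBL-b (aa 39-426) after a 60 min RT compound pre-incubation; terbium-streptavidin detection, 60 min each step. Dose-response sigmoidal fitting gave IC50 and % maximum inhibition.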

For assay [2], the system named is NFAT signaling pathway in Jurkat NFAT reporter cells. Put plainly: Jurkat NFAT reporter assay. The format is cell-based. Particulars: Homo sapiens, 30 min with compound, then soluble anti-human CD3/CD28 antibody for 6 hours, luciferase readout, read-out: EC50 (Group). The procedure: A human T lymphocyte Jurkat reporter cell line was further used to assess activation of the nuclear factor of activated T-cells (NFAT) signaling pathway by Cbl-b inhibitors. The reporter cell line is a genetically engineered Jurkat T cell line that expresses a luciferase reporter driven by an NFAT-response element (NFAT-RE). The Cbl-b inhibitor was incubated with 1×10^5 Jurkat NFAT reporter cells per well for 30 minutes. Subsequently, cells were stimulated with soluble anti-human CD3/CD28 antibody for 6 hours resulting in NFAT-RE-mediated luminescence. The bioluminescent signal is detected and quantified using Bio-Glo™ Luciferase Assay System. Readouts were reported as fold change over baseline. Here, baseline was the measurement obtained from Jurkat NFAT reporter cells stimulated with anti-CD3 antibody and anti-CD28 antibody, where the cells were not incubated with a Cbl-b inhibitor.
(A reporter such as luciferase makes a cellular process visible.)

By IC50 is commonly meant the concentration that gives 50% inhibition. Broadly, the EC50 is the concentration needed to bring the measured effect to its halfway point.

T1 sequence (Q13191 39-426): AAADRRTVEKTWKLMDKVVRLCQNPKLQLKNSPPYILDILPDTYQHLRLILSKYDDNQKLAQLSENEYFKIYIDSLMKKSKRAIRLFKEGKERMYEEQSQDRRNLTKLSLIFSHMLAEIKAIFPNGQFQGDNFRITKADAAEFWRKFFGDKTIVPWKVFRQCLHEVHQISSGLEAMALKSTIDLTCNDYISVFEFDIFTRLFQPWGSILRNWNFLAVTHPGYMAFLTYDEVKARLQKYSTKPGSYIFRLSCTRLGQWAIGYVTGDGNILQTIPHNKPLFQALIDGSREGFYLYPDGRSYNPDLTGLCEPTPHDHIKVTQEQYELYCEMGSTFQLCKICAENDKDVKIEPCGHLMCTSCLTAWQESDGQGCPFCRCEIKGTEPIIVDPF

Take `Cn1cnnc1CC1(c2ccc3c(c2)C(=O)N(c2cc(CNC4CCCC4)cc(Cl)n2)C3)COC1` [Compound 201, 2-(6-Chloro-4-((cyclopentylamino)methyl)pyridin-2-yl)-6-(3-((4-methyl-4H-1,2,4-triazol-3-yl)methyl)oxetan-3-yl)isoindolin-1-one]: the half-inhibitory concentration (IC50) in assay [1] was less than 0.08 µM. Moreover, in assay [2], the EC50 was less than 0.3 µM.
The matching figures for `C[C@H](NCC1CC1)c1cc(Cl)nc(N2Cc3ccc(C4(Cc5nncn5C)COC4)cc3C2=O)c1` (single isomer, unassigned) [Compound 167]: less than 0.08 µM and less than 0.3 µM.
The matching figures for `C[C@H](N[C@H](C)c1cc(Cl)nc(N2Cc3ccc(C4(Cc5nncn5C)COC4)cc3C2=O)c1)C1CC1` (single isomer, unassigned) [Compound 239]: less than 0.08 µM and less than 0.3 µM.
The matching figures for `Cn1cnnc1CC1(c2ccc3c(c2)C(=O)N(c2cc(CN4CCC(F)(F)CC4)cc(C(F)(F)F)n2)C3)COC1` [Compound 48, 2-(4-((4,4-Difluoropiperidin-1-yl)methyl)-6-(trifluoromethyl)pyridin-2-yl)-6-(3-((4-methyl-4H-1,2,4-triazol-3-yl)methyl)oxetan-3-yl)isoindolin-1-one]: 0.08 to 0.3 µM and 0.3 to 1 µM.
As to `Cc1cc(CNCC2CC2)cc(N2Cc3ccc(-c4ncc(Cl)cc4-c4nncn4C)cc3C2=O)n1` [Compound 263, 6-(5-Chloro-3-(4-methyl-4H-1,2,4-triazol-3-yl)pyridin-2-yl)-2-(4-(((cyclo-propylmethyl)amino)methyl)-6-methylpyridin-2-yl)isoindolin-1-one], in assay [1], the IC50 is less than 0.08 µM. The 50% effective concentration (EC50) in assay [2] was 1 to 10 µM.
The matching figures for `C[C@@H](NCc1cc(Cl)nc(N2Cc3ccc(C4(Cc5nncn5C)COC4)cc3C2=O)c1)C1CC1` (single isomer, unassigned) [Compound 224]: less than 0.08 µM and 0.3 to 1 µM.
In the case of `C[C@H]1C[C@H](C)CN(Cc2cc(Cl)nc(N3Cc4ccc(C5(Cc6nncn6C)COC5)cc4C3=O)c2)C1` [Compound 60, 2-(6-Chloro-4-(((3S,5S)-3,5-dimethylpiperidin-1-yl)methyl)pyridin-2-yl)-6-(3-((4-methyl-4H-1,2,4-triazol-3-yl)methyl)oxetan-3-yl)isoindolin-1-one], in assay [1], the IC50 was less than 0.08 µM. In assay [2], the half-maximal effective concentration (EC50) is less than 0.3 µM.
The matching figures for `C[C@H]1CCCN(Cc2cc(Cl)nc(N3Cc4ccc([C@]5(Cc6nncn6C)C[C@@H](C#N)C5)cc4C3=O)c2)C1` (single isomer, unassigned) [Compound 179]: less than 0.08 µM and less than 0.3 µM.
The matching figures for `Cn1cnnc1-c1cc(Cl)ccc1-c1ccc2c(c1)C(=O)N(c1cc(CNCC3CC3)cc(C(F)(F)F)n1)C2` [Compound 132, 6-(4-Chloro-2-(4-methyl-4H-1,2,4-triazol-3-yl)phenyl)-2-(4-(((cyclopropylmethyl)amino)methyl)-6-(trifluoromethyl)pyridin-2-yl)isoindolin-1-one]: less than 0.08 µM and less than 0.3 µM.
The matching figures for `Cc1cc(N2Cc3ccc(C4(Cc5nncn5C)COC4)cc3C2=O)cc(CN2CCC[C@H](C)C2)n1` [Compound 23, (S)-6-(3-((4-Methyl-4H-1,2,4-triazol-3-yl)methyl)oxetan-3-yl)-2-(2-methyl-6-((3-methylpiperidin-1-yl)methyl)pyridin-4-yl)isoindolin-1-one]: 0.08 to 0.3 µM and 1 to 10 µM.
`C[C@H](NCc1cc(Cl)nc(N2Cc3ccc(C4(Cc5nncn5C)COC4)cc3C2=O)c1)C1CC1` (single isomer, unassigned) [Compound 223]: the half-maximal inhibitory concentration (IC50) in assay [1] was less than 0.08 µM. Further, in assay [2], the half-maximal effective concentration (EC50) is less than 0.3 µM.
